# Experimental data taken from patent US6548540B2, “Method of treating cancer using dithiocarbamate derivatives” (Charlotte-Mecklenburg Hospital Authority, priority 1998, dated 2003).
# Legend:
# Assay type in all cases: cell-based, human
# cyclin A = assay: Immunoblot for cyclin A in M1619 cells; conditions: CuSO4 1.6 μM alone; 24 hours
# Experimental: Cells were lysed and proteins were isolated and quantitated by immunoassay as previously detailed using 2 μg/ml of primary rabbit polyclonal antibodies against human bcl-2, p53, p21^WAF1/CiP1, cyclin A and cyclin B1, and peroxidase-labeled donkey polyclonal anti-rabbit IgG. Cells were placed on ice, washed twice with cold DPBS, scraped into 0.5 ml boiling buffer (10% [vol/vol] glycerol and 2% [wt/vol] sodium dodecyl sulfate [SDS] in 83 mM Tris, pH 6.8) and sheared by four passages through a pipette. Aliquots were removed for protein determination, using the BCA protein assay (Pierce). After 10% β-mercaptoethanol and 0.05% bromophenol blue were added, lysates were boiled for 5 min and stored at -80° C. until immunoblotting was performed. Proteins in defrosted samples were separated by SDS-polyacrylamide gel electrophoresis on 12% polyacrylamide gels (15 μg protein/lane) and electrotransferred to 0.45 μm Hybond ECL nitrocellulose membranes (Amersham Life Sciences) using the wet transblot method in transfer buffer (0.025 M Tris, 0.192 M glycine, 2.6 mM SDS, and 20%[vol/vol] methanol; pH 8.8) at 100 volts for 1 hour. Blots were blocked overnight at 4° C. with blocking buffer (PBS with 0.1% Tween 20) containing 5% fat-free milk powder (Carnation, Glendale, Calif.). After rinsing 5 times for 5 minutes each in PBS containing 0.1% Tween 20, blots were incubated for 1 hour at room temperature with 2.0 μg/ml of primary antibody. After rinsing again as above, blots were incubated for 1 hr at room temperature with horseradish peroxidase (HRP)-conjugated secondary antibody diluted 1:5,000 in blocking buffer. Immunoblots were rinsed again as above and detected via an enhanced chemiluminescence method (ECL Western blotting detection system, Amersham Life Science, Buckinghamshire, England). Autoradiographic film (X-OMAT AR, Eastman Kodak, Rochester, N.Y.) was exposed to immunoblots for 10, 30, or 60 seconds to obtain satisfactory images. Since disulfiram and copper disrupt transcription factor DNA binding to CRE, their effect on expression of cyclin A was studied. […]
# M1619 cells = assay: Intracellular reactive oxygen species, dichlorofluorescin probe; conditions: CuSO4 0.2-1.6 μM
# Experimental: Potential redox effects of disulfiram were studied in three sets of experiments. The importance of cellular glutathione (GSH) in mediating or modulating thiocarbamate toxicity was studied by measuring levels of intracellular GSH after treatment with disulfiram. […] Also, to assess whether a nonspecific antioxidant effect of disulfiram or PDTC might account for cellular growth inhibition, we studied the effect of the potent lipophilic antioxidant probucol (1.0 to 1,000 μM) on proliferation of malignant cell lines. […] A. Royall, et al., “Evaluation of 2′,7′-dichlorofluorescin and dihydrorhodamine 123 as fluorescent probes for intracellular H2O2 in cultured endothelial cells,” Archiv. Biochem. Biophys. 302:348-355 (1993)). […] Cells were plated in 24 well plastic plates at 50,000 cells per well and grown to confluence. Media was aspirated from wells and replaced with 100 μl medium containing 10 μM DCF-DA, and plates were incubated at 37° C. for 30 minutes. The DCF-DA containing media was aspirated, cells were washed twice with media alone and 100 μl fresh media was added to wells. […] The relative concentration of dichlorofluroescein was measured immediately by monitoring fluorescence at 37° C. using an excitation wavelength of 485 nm and emission wavelength of 535 nm.
# M1619 melanoma cells = assay: MTT proliferation assay, M1619 melanoma; conditions: CuSO4 supplementation of medium without disulfiram
# Experimental: Human malignant cell lines were obtained from American Type Tissue Culture Collection (Rockville, Md.). Melanoma cells lines CRL 1585 and 1619 were cultured in RPMI 1640 (GIBCO-BRL, Life Technologies, Grand Island, N.Y.) with 10% FBS and passed with nonenzymatic Cell Dissociation Solution® (Sigma). The prostate adenocarcinoma cell line CRL 1435 (PC-3) was also cultured in RPMI 1640 with 10% FBS but passed with 0.05% trypsin and 0.53 mM EDTA. The squamous lung carcinoma NCI-H520 and the adenosquamous lung carcinoma NCI-H596 cell lines were grown in RPMI 1640 supplemented with 10% FBS, 10 mM HEPES and 1.0 mM sodium pyruvate and passed with trypsin/EDTA. The small cell lung carcinoma NCI-H82 was cultured as a suspension in RPMI 1640 with 10% FBS. All of the above were grown in a 37° C. humidified environment containing 5% CO2/air. The breast carcinoma cell line MDA-MB-453 was grown in a 37° C. humidified environment with free gas exchange with atmospheric air using Leibovitz's L-15 medium with 2 mM L-glutamine and 10% FBS and was passed with trypsin/EDTA.
# The effect of disulfiram (0.15 to 5.0 μM), diethyldithiocarbamate (DDC, 1.0 μM) or PDTC (0.625 to 5.0 μM) on proliferation of malignant cell lines was studied in cultures stimulated with 10% FBS. Cell numbers were quantitated 24-72 hours later. In some experiments disulfiram or PDTC were added immediately after cells were plated. In other experiments, cells were plated and allowed to grow for 24-72 hours before fresh media with disulfiram or PDTC was added, and cell numbers were assayed 24-72 hours later.
# Finally, a number of dithiocarbamate effects on cells have been attributed to increasing the intracellular levels of copper ions. To further probe the role of copper in mediating cytotoxicity from disulfiram, cells were cultured with or without addition of the impermeate Cu^2+ chelator bathocuprioinedisulfonic acid (BCPS, 100 μM) added to medium to sequester Cu^2+ in the extracellular compartment. Cells were also treated 12 hours with various concentration of disulfiram (0.625 to 5.0 μM) and intracellular copper levels were measured as outlined below.
# Proliferation of cultured cells was quantitated using a previously reported calorimetric method based upon metabolic reduction of the soluble yellow tetrazolium dye 3-[4,5-dimethylthiazol]-2yl-2,5-diphenyl tetrazolium bromide (MTT) to its insoluble purple formazan by the action of mitochondrial succinyl dehydrogenase (See, e.g., S. J. Hirst, et al., “Quantifying proliferation of cultured human and rabbit airway smooth muscle in response to serum and platelet derived growth factor,” Am. J. Respir. Cell Mol. Biol. 7:574-581 (1992); R. Dashtaki, et al. R., supra; S. S. Brar, et al., “Requirement for reactive oxygen species in serum-induced and platelet-derived growth factor-induced growth of airway smooth muscle,” J. Biol. Chem. 274:20017-20026 (1999)). This assay empirically distinguishes between dead and living cells. For proliferation studies, cells were seeded into 24-well uncoated plastic plates (Costar) at 50,000 cells per well and cultured with respective media and mitogens.
compound,measurement,setting,value
"O=S(=O)([O-])[O-].[Cu+2] [CuSO4, cupric sulfate]",cyclin A expression,cyclin A,little effect
same,generation of reactive oxygen species (dichlorofluorescein fluorescence vs baseline),M1619 cells,not increased
same,"cell growth, copper alone",M1619 melanoma cells,do not by themselves affect cell growth
